Data published in article PMC6480424, “Hydrophobic Amines and Their Guanidine Analogues Modulate Activation and Desensitization of ASIC3” (International Journal of Molecular Sciences, 2019).
Values belong to the molecule of their own block, whether it stands above or below them.

What was measured:
Format in all cases: cell-based
[1] = target: T1, ASIC3 (acid-sensing ion channel 3) (Rattus norvegicus, UniProt O35240); assay: whole-cell patch clamp, peak inhibition and sustained potentiation, on/tail currents
T1 construct: homomeric rat ASIC3 expressed in CHO cells
T1 sequence (O35240 1-533): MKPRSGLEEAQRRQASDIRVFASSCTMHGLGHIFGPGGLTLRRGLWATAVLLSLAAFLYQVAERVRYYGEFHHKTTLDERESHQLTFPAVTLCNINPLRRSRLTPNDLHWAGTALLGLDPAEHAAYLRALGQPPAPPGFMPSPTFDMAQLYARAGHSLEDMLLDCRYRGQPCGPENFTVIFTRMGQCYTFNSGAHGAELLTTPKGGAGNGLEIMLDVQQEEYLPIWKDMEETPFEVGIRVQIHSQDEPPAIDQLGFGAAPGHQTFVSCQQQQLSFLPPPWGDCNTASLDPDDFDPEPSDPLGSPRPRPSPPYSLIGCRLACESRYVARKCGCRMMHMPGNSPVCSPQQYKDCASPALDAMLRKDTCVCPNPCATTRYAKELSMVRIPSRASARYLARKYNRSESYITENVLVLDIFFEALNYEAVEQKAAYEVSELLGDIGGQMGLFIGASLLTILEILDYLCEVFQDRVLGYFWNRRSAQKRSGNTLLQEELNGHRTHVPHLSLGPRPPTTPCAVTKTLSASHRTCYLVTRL

[2] = target: T1, ASIC3 (acid-sensing ion channel 3); assay: whole-cell patch clamp, sustained current potentiation by […] at pH […]; conditions: read-out: % potentiation at 0.5 mM
[3] = target: T1, ASIC3 (acid-sensing ion channel 3); assay: whole-cell patch clamp, sustained current inhibition by […] at pH […]; conditions: read-out: % inhibition at 0.5 mM
[4] = target: T1, ASIC3 (acid-sensing ion channel 3); assay: whole-cell patch clamp, sustained current inhibition at pH […]
[5] = target: T1, ASIC3 (acid-sensing ion channel 3); assay: whole-cell patch clamp, peak current inhibition at pH […]
[6] = target: T1, ASIC3 (acid-sensing ion channel 3); assay: whole-cell patch clamp at […], acidic shift of activation

SMILES: Nc1c2ccccc2nc2ccccc12 [9AA, 9-aminoacridine]
whole-cell patch clamp, peak inhibition and sustained potentiation, on/tail curr [1]: 9-Aminoacridine and IEM-2044, which inhibit peak and potentiate the sustained component of the response

SMILES: NCCC1(c2ccccc2)CCCCC1 [IEM-2044]
whole-cell patch clamp, peak inhibition and sustained potentiation, on/tail curr [1]: 9-Aminoacridine and IEM-2044, which inhibit peak and potentiate the sustained component of the response

SMILES: N=C(N)NC12CC3CC(CC(C3)C1)C2 [IEM-2151]
inhibition at 500 µM [3]: 29 ± 4%

SMILES: CC12CC3CC(C)(C1)CC(NC(=N)N)(C3)C2 [IEM-2163]
IC50 [4]: 117 ± 5.6 µM

SMILES: CN(C)CCC=C1c2ccccc2CCc2ccccc21 [amitriptyline]
whole-cell patch clamp at 500 μM, acidic shift of activation [6]: IEM-2044 and amitriptyline have opposite effects on different channels, inducing an alkaline shift of activation on ASIC1a

The next lines start with the values.

activation at 500 µM [2]: 498 ± 196%
SMILES: NC1c2ccccc2-c2ccccc21 [IEM-2117]

IC50 [5]: 21 ± 15 µM
SMILES: N=C(N)NCCC1(c2ccccc2)CCCCC1 [IEM-2195]
